pIC50: −log10 of the molar value. In brackets after ≈: the same amount, converted by molar mass.
Key:
BaF3 [1] = experiment: Inhibition of cell viability in mouse BaF3 cells incubated for 3 days by Cell Titer Glo assay; format: functional; conditions: BaF3, 72 h, time 3 day
BaF3 [2] = experiment: Inhibition of cell viability in mouse BaF3 cells expressing FER incubated for 3 days by Cell Titer Glo assay; format: functional; conditions: BaF3, 72 h, time 3 day
[3] = Metabolic stability in CD-1 mouse liver microsomes assessed as compound remaining at 1 uM incubated for 30 mins by LC-MS/MS analysis; format: ADME, Microsome; conditions: read-out: Stability
[4] = Total plasma clearance in BALB/cAnNCrlCrlj mouse at 1 mg/kg, iv; format: ADME, organism-based
[5] = Cmax in BALB/cAnNCrlCrlj mouse at 10 mg/kg, po; format: ADME, organism-based; conditions: in vivo
[6] = AUC in BALB/cAnNCrlCrlj mouse at 10 mg/kg, po; format: ADME, organism-based; conditions: in vivo
[7] = Solubility of compound in buffer at pH 6.8 incubated for 4 hrs by HPLC-UV analysis; format: physicochemical
[8] = Protein binding in BALB/c mouse serum at 10 ug/ml incubated for 4 hrs by equilibrium dialysis; format: ADME, cell-free; conditions: at 10 µg/mL, read-out: PB (converted)
[9] = molecular target: Leukocyte tyrosine kinase receptor (Homo sapiens) (UniProt P29376); experiment: Inhibition of LTK (unknown origin) at 200 nM in presence of ATP by kinase profiling analysis relative to control
[10] = molecular target: Protein-tyrosine kinase 2-beta (Homo sapiens) (UniProt Q14289); experiment: Inhibition of PTK2B (unknown origin) at 200 nM in presence of ATP by kinase profiling analysis relative to control
[11] = Permeability co-efficient of compound at 5 uM incubated for 4 hrs by PAMPA; format: ADME; conditions: read-out: Peff
[12] = Toxicity in BALB/cAJcl-nu/nu mouse xenografted with […] mouse BaF3 cells expressing FER at 6.25 to 100 mg/kg, po qd for 10 days; format: organism-based; conditions: in vivo, 240 h, dose 6.25-100 mg/kg, time 10 day
BaF3 [13] = experiment: Antitumor activity against […] mouse BaF3 cells expressing FER xenografted in BALB/cAJcl-nu/nu mouse administered orally once a day for 4 days; format: functional, cell-based; conditions: dose 6.25-100 mg/kg, route po, time 4.0 day
[14] = molecular target: ALK tyrosine kinase receptor (Homo sapiens) (UniProt Q9UM73); experiment: Inhibition of ALK (unknown origin) at 200 nM in presence of ATP by kinase profiling analysis relative to control
[15] = Solubility of compound in FaSSIF incubated for 4 hrs by HPLC-UV analysis; format: ADME
[16] = molecular target: Receptor-type tyrosine-protein kinase FLT3 (Homo sapiens) (UniProt P36888); experiment: Inhibition of FLT3 (unknown origin) at 200 nM in presence of ATP by kinase profiling analysis relative to control
[17] = molecular target: Tyrosine-protein kinase SYK (Homo sapiens) (UniProt P43405); experiment: Inhibition of SYK (unknown origin) at 200 nM in presence of ATP by kinase profiling analysis relative to control
[18] = molecular target: T1, Testis-specific serine/threonine-protein kinase 1 (Homo sapiens) (UniProt Q9BXA7); experiment: Inhibition of TSSK1B (unknown origin) at 200 nM in presence of ATP by kinase profiling analysis relative to control
T1 sequence (whole entry): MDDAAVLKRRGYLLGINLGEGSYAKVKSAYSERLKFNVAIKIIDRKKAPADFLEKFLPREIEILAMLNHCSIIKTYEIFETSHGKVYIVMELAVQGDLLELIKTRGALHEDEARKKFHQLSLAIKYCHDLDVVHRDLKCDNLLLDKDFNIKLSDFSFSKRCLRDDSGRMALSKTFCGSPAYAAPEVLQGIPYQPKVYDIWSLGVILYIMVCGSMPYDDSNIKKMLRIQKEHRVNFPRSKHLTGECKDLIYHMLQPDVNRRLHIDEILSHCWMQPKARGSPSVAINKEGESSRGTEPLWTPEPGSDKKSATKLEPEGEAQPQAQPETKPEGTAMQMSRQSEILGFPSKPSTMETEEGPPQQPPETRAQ

[19] = Oral bioavailability in BALB/cAnNCrlCrlj mouse at 10 mg/kg; format: ADME, organism-based; conditions: in vivo
[20] = molecular target: Serine/threonine-protein kinase Chk2 (Homo sapiens) (UniProt O96017); experiment: Inhibition of CHEK2 (unknown origin) at 200 nM in presence of ATP by kinase profiling analysis relative to control
[21] = molecular target: Mast/stem cell growth factor receptor Kit (Homo sapiens) (UniProt P10721); experiment: Inhibition of KIT (unknown origin) at 200 nM in presence of ATP by kinase profiling analysis relative to control
[22] = Toxicity in BALB/cAJcl-nu/nu mouse xenografted with […] mouse BaF3 cells expressing FER at 100 mg/kg, po qd for 10 days; format: organism-based; conditions: in vivo, 240 h, time 10 day
[23] = molecular target: Tyrosine-protein kinase Fer (Homo sapiens, UniProt P16591); experiment: Inhibition of N-terminal His-tagged recombinant human FER using FL-Peptide22 as substrate incubated for 90 mins in presence of ATP
[24] = molecular target: Cyclin-dependent kinase 2 (Homo sapiens) (UniProt P24941); experiment: Inhibition of CDK2 (unknown origin) at 200 nM in presence of ATP by kinase profiling analysis relative to control
[25] = molecular target: Proto-oncogene tyrosine-protein kinase ROS (Homo sapiens) (UniProt P08922); experiment: Inhibition of ROS1 (unknown origin) at 200 nM in presence of ATP by kinase profiling analysis relative to control
[26] = molecular target: Macrophage colony-stimulating factor 1 receptor (Homo sapiens) (UniProt P07333); experiment: Inhibition of CSF1R (unknown origin) at 200 nM in presence of ATP by kinase profiling analysis relative to control
Homo sapiens = organism: Homo sapiens; experiment: Inhibition of NTRK1 (unknown origin) at 200 nM in presence of ATP by kinase profiling analysis relative to control
[27] = molecular target: Mitogen-activated protein kinase kinase kinase kinase 4 (Homo sapiens) (UniProt O95819); experiment: Inhibition of MAP4K4 (unknown origin) at 200 nM in presence of ATP by kinase profiling analysis relative to control

Chain of ALK tyrosine kinase receptor (Homo sapiens) (Q9UM73 19-1620 limits assumed): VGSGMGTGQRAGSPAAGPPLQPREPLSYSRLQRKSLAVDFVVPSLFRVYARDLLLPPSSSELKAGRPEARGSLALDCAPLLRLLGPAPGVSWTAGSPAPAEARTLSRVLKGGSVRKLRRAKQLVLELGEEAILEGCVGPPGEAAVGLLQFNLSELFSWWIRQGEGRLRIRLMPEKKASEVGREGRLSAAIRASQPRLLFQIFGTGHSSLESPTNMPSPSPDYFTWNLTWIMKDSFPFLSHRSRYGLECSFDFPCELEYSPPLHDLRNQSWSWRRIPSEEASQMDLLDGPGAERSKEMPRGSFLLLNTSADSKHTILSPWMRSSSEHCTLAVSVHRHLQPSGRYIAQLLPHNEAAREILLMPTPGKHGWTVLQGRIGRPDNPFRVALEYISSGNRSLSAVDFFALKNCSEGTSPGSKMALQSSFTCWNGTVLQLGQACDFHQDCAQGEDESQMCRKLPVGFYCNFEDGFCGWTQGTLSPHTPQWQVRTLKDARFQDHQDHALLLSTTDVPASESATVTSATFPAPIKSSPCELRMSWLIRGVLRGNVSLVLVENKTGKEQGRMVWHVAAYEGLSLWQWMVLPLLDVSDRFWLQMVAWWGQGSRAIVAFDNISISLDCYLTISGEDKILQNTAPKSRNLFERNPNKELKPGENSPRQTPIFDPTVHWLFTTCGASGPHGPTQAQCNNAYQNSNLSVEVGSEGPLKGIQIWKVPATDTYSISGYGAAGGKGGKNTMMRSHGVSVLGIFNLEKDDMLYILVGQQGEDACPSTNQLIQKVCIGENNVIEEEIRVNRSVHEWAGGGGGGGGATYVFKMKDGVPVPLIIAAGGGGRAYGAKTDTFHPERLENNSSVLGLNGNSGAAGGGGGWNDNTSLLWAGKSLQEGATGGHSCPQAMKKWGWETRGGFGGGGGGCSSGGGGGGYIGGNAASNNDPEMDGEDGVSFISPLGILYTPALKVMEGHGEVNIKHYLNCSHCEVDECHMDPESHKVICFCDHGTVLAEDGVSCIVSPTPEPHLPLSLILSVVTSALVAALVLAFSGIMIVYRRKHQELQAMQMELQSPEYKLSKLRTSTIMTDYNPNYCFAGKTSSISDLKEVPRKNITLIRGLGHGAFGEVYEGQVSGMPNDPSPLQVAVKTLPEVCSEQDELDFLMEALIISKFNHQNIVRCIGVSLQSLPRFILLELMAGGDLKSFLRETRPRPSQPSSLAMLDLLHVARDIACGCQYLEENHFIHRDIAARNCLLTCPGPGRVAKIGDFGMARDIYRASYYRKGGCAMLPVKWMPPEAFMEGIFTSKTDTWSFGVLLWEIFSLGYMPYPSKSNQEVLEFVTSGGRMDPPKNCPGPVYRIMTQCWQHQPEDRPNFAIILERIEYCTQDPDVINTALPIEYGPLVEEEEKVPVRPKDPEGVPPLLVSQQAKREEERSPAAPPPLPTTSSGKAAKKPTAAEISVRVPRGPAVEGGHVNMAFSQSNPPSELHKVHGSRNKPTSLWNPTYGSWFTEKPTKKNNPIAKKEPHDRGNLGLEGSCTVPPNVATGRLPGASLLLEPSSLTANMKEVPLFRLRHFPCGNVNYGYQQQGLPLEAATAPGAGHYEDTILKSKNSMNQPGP
Chain of Protein-tyrosine kinase 2-beta (Homo sapiens) (Q14289 whole entry, looked up): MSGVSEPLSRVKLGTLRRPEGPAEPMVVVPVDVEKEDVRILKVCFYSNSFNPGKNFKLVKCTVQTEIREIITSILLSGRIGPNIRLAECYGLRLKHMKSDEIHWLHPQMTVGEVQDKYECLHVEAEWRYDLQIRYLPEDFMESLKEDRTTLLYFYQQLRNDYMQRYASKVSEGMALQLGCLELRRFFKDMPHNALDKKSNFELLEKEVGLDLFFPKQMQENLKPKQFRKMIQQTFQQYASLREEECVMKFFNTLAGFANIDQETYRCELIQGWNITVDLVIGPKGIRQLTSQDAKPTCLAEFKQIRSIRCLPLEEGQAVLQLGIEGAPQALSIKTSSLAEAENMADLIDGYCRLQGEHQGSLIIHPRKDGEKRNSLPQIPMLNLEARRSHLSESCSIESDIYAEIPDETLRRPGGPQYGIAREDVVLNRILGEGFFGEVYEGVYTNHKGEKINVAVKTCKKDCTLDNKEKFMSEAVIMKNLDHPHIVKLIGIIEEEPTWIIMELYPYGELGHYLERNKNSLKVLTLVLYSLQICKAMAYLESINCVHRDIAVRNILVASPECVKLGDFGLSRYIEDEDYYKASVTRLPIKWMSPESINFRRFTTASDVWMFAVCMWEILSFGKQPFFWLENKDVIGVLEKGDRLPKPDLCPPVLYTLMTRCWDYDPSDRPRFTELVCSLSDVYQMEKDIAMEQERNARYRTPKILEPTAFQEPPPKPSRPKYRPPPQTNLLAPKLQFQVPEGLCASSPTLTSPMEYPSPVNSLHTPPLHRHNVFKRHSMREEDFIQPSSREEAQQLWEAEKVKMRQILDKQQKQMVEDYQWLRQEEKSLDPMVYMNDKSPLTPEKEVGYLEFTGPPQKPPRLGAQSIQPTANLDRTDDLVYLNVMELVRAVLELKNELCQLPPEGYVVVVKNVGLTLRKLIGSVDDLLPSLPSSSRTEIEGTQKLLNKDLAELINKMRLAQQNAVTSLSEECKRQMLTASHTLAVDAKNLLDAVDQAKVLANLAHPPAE
Chain of Receptor-type tyrosine-protein kinase FLT3 (Homo sapiens) (P36888 whole entry): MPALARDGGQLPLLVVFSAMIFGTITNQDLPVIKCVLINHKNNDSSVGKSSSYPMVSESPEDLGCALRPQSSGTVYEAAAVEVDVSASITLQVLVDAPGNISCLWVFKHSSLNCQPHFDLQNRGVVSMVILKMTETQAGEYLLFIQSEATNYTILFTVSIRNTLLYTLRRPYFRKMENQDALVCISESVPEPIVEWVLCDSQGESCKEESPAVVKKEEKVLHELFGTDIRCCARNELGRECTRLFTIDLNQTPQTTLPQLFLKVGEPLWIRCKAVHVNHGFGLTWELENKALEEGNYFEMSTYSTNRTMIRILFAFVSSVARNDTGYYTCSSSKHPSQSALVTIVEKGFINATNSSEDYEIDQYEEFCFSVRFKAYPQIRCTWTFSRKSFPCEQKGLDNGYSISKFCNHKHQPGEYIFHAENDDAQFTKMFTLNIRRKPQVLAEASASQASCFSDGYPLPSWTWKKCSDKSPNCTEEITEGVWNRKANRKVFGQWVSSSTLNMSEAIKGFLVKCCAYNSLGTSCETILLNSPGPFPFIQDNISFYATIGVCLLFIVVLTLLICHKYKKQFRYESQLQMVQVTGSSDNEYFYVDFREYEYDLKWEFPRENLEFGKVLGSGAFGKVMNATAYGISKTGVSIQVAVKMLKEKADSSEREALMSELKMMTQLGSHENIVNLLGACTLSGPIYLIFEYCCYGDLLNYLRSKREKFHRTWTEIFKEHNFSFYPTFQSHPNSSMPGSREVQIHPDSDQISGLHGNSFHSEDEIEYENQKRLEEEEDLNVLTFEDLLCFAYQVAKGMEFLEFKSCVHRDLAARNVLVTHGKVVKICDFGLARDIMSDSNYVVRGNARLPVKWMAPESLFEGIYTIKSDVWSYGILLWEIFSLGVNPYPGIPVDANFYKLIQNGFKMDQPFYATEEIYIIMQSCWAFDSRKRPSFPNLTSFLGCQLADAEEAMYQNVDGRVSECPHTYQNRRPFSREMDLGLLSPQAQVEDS
Chain of Serine/threonine-protein kinase Chk2 (Homo sapiens) (O96017 whole entry): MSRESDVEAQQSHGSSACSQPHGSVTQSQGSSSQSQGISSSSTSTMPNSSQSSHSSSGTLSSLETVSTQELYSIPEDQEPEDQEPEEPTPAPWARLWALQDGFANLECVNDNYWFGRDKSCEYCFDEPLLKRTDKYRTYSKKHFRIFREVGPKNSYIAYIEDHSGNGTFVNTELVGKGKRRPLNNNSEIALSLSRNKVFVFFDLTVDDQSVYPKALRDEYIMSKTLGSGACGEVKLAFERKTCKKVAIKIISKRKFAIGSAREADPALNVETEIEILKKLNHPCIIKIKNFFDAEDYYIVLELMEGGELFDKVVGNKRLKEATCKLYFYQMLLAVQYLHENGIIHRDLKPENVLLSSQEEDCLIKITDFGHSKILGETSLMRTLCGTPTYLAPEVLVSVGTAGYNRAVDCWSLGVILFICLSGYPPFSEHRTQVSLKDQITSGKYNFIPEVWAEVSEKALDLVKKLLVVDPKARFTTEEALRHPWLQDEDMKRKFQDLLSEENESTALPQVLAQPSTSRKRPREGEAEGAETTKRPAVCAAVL
Chain of Macrophage colony-stimulating factor 1 receptor (Homo sapiens) (P07333 whole entry): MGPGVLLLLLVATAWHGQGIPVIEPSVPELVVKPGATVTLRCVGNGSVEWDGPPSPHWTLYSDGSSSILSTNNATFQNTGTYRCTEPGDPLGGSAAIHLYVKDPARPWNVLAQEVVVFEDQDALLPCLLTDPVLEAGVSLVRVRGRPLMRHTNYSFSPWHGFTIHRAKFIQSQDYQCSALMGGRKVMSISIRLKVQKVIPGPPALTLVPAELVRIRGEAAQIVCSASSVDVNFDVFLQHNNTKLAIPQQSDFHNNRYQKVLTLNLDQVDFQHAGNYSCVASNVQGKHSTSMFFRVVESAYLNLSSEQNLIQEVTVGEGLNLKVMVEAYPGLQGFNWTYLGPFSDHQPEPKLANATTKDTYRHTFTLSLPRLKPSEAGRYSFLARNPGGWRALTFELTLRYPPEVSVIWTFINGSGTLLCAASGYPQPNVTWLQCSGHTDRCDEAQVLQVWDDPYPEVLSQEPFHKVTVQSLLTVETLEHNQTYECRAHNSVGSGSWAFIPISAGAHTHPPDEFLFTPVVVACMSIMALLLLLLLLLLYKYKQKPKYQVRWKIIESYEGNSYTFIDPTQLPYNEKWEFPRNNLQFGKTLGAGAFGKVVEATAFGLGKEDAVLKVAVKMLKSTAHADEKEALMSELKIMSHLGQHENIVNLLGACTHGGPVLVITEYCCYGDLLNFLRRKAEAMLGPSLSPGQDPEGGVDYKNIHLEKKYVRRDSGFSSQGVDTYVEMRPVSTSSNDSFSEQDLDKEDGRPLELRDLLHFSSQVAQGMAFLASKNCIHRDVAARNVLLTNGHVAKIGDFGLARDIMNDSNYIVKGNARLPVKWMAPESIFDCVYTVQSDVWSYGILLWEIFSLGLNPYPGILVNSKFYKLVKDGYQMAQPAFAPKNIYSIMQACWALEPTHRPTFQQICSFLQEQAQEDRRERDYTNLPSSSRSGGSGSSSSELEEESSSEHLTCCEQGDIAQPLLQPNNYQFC

For `Cc1cccc(Nc2nc(NC3CCCCC3N)c(F)c3cn[nH]c(=O)c23)c1` (racemic), the GI50 (BaF3 [1]) was 1230 nM and the GI50 (BaF3 [2]) was 30 nM.

For `Cn1cc(Nc2nc(NC3CCCCC3N)c(F)c3cn[nH]c(=O)c23)cn1` (racemic), the GI50 (BaF3 [1]) was 340 nM and the GI50 (BaF3 [2]) was 57 nM.

Molecule `CN1CCN(c2cccc(Nc3nc(NC4CCCCC4N)c(F)c4cn[nH]c(=O)c34)c2)CC1` (racemic) has a GI50 (BaF3 [1]) of 630 nM and a GI50 (BaF3 [2]) of 76 nM.

For `N#Cc1c(N[C@@H]2CCCC[C@@H]2N)nc(Nc2cccc(N3CC4(COC4)C3)c2)c2c(=O)[nH]ncc12`, the GI50 (BaF3 [1]) was 362 nM and the GI50 (BaF3 [2]) was 0.36 nM.

With `C[C@@H]1CN(c2cccc(Nc3nc(N[C@@H]4CCCC[C@@H]4N)c(C#N)c4cn[nH]c(=O)c34)c2)C[C@H](C)O1` the remaining at 0.5 h, 1 µM [3] was 85%, the clearance [4] was 13 mL/min/kg and the Cmax [5] was 630 ng/mL. For the same molecule, the AUC [6] was 8200 ng·h/mL, the solubility at 4 h [7] was 6.7 µg/mL (≈ 13.7 µM) and the fraction unbound at 4 h, 10 ug/ml [8] was 0.03. For the same molecule, the inhibition [9] was > 90%, the GI50 (BaF3 [1]) was 1000 nM and the inhibition [10] was > 90%. For the same molecule, the Papp at 4 h, 5 µM [11] was > 50 ×10⁻⁶ cm/s, the Activity [12] was “Non-Toxic” and the Activity (BaF3 [13]) was “Dose-Dependent Effect”. The inhibition [14] was > 90%, the solubility at 4 h [15] was 30 µg/mL (≈ 61.4 µM) and the inhibition [16] was > 90%. The inhibition [17] was > 90%, the inhibition [18] was > 90% and the bioavailability [19] was 65%. For the same molecule, the GI50 (BaF3 [2]) was 0.67 nM and the inhibition [20] was > 90%.

With `CCOc1cccc(Nc2nc(NC3CCCCC3N)c(F)c3cn[nH]c(=O)c23)c1` (racemic) the GI50 (BaF3 [1]) was 1600 nM and the GI50 (BaF3 [2]) was 50 nM.

With `Cc1cccc(Nc2nc(NC3CCCCC3N)c(C#N)c3cn[nH]c(=O)c23)c1` (centres undefined) the inhibition [21] was > 90%, the remaining at 0.5 h, 1 µM [3] was 96% and the Activity [22] was “Toxic”. For the same molecule, the clearance [4] was 12 mL/min/kg, the pIC50 [23] was 9.31 and the Cmax [5] was 360 ng/mL. For the same molecule, the inhibition [24] was > 90%, the AUC [6] was 4800 ng·h/mL and the solubility at 4 h [7] was 0.9 µg/mL (≈ 2.31 µM). For the same molecule, the fraction unbound at 4 h, 10 ug/ml [8] was 0.01, the inhibition [25] was > 90% and the inhibition [26] was > 90%. The GI50 (BaF3 [1]) was 220 nM, the inhibition (Homo sapiens) was > 90% and the inhibition [10] was > 90%. The Papp at 4 h, 5 µM [11] was > 50 ×10⁻⁶ cm/s, the inhibition [14] was > 90% and the solubility at 4 h [15] was 2.1 µg/mL (≈ 5.39 µM). For the same molecule, the inhibition [27] was > 90%, the inhibition [16] was > 90% and the inhibition [17] was > 90%. For the same molecule, the inhibition [18] was > 90%, the bioavailability [19] was 34% and the GI50 (BaF3 [2]) was 1.9 nM. For the same molecule, the inhibition [20] was > 90%.

`N#Cc1c(N[C@@H]2CCCC[C@@H]2N)nc(Nc2cccc(N3CCOCC3)c2)c2c(=O)[nH]ncc12` showed a GI50 (BaF3 [1]) of 310 nM and a GI50 (BaF3 [2]) of 1.2 nM.

`N[C@H]1CCCC[C@H]1Nc1nc(Nc2cccc(N3CCOCC3)c2)c2c(=O)[nH]ncc2c1F` gave a GI50 (BaF3 [1]) of 1200 nM and a GI50 (BaF3 [2]) of 4.7 nM.

Source: ChEMBL document CHEMBL5584280, “Optimization of Novel Pyrido-pyridazinone Derivatives as FER Tyrosine Kinase Inhibitors, Leading to the Potent DS08701581” (ACS Med Chem Lett, 2024)
